Test results from patent publication US20090069441A1, “Motuporamine Mimic Agents” (priority 2006, published 2009).
Where two headings read alike, the source gives them in different places.

Key:
CHO-MG cells = experiment: Cytotoxicity in PAT-deficient CHO-MG cells; assay type: cell-based, Chinese hamster; settings: Cricetulus griseus, CHO-MG
Excerpt: In terms of Table 1, L1210 cells are mouse leukemia cells and are the gold standard in terms of evaluating polyamine cytotoxicity data due to a plethora of prior data in this cell line for other polyamine structures. Clearly 7a was similar in all respects to 4a (Table 1). […] The lower the Ki value, the higher the affinity of the drug for the polyamine transporter (PAT) on the cell surface. Chinese hamster ovary (CHO) cells and a mutant line without an active PAT (CHO-MG) also evaluated the PAT selectivity of these drugs.
CHO and CHO-MG studies. Chinese hamster ovary (CHO) cells were chosen along with a mutant cell line (CHO-MG) in order to comment on how the synthetic conjugates gain access to cells. The CHO-MG cell line is polyamine-transport deficient and was isolated after selection for growth resistance to methylglyoxalbis(guanylhydrazone), MGBG, (CH3C[═N—NHC(═NH)NH2]CH[═N—NHC(═NH)NH2]) using a single-step selection after mutagenesis with ethylmethanesulfonate (Mandel et al., J. Cell. Physiol., 1978, 97, 335-344; Byers et al., Biochem. J. 1989, 263, 745-752).
For the purposes of this study, the CHO-MG cell line represents cells with no PAT activity and provided a model for alternative modes of entry or action, which are independent of PAT. These alternative modes of entry include passive diffusion or utilization of another transporter. The alternative modes of action may also include interactions on the outer surface of the plasma membrane or other membrane receptor interactions.
Biological studies. Murine leukemia cells (L1210), CHO and CHO-MG cells were grown in RPMI medium supplemented with 10% fetal calf serum, glutamine (2 mM), penicillin (100 U/mL), streptomycin (50 μg/mL). L-Proline (2 μg/mL) was added to the culture medium for CHO-MG cells. Cells were grown at 37° C. under a humidified 5% CO2 atmosphere. […] Trypan blue staining was used to determine cell viability before the initiation of a cytotoxicity experiment. Cells in early to mid log-phase were used. IC50 determinations. Cell growth was assayed in sterile 96-well microtiter plates (Becton-Dickinson, Oxnard, Calif., USA). L1210 cells were seeded at 5e^4 cells/mL of medium (100 μL/well). CHO and CHO-MG cells were plated at 2e^3 cells/mL. Drug solutions (10 μL per well) of appropriate concentration were added at the time of seeding for L1210 cells and after an overnight incubation for the CHO cell lines. After exposure to the drug for 48 hr, cell growth was determined by measuring formazan formation from 3-(4,5-dimethylthiazol-2-yl)2,5-diphenyltetrazolium using a Titertek Multiskan MCC/340 microplate reader for absorbance (540 nm) measurements (Mosmann, T., J. Immunol. Methods 1983, 65, 55-63).

[1] = system: Drosophila imaginal leg discs; experiment: Imaginal disc eversion assay; assay type: cell-based, Drosophila melanogaster; settings: Drosophila melanogaster, 15 hr incubation in Robb's medium
Protocol: DihydroMotuporamine C, 4a, was used to develop an imaginal disc assay in Drosophila flies. The imaginal leg discs were collected by microscopic dissection from maggots. […] Inhibition was measured as failure of the disc to fully develop into a fly leg after 15 hr of incubation in Robb's growth medium. This presumably occurs by overactivation of Rho, an important signaling pathway in development. Hyper-stimulation of this pathway is sufficient to block development of the fly leg.
Fly Stocks: 20 female and 5 male wild type Oregon variant of Drosophila melanogaster interbred in blue food medium for 24 hours then flies are removed. Third instar wall-crawling larvae collected then dissected on the sixth day. Flies kept in 25° C. incubation chamber.
Blue Food Preparation: Standard corn meal medium heated then mixed completely with aqueous 1% Bromophenol Blue. The food medium is cooled for one day or more before use.
Dissection Medium: Ringer's Buffer with 10 uL 0.1% BSA. Ringer's Medium consists of 130 mM NaCl, 5 mM KCl, 1.5 mM CaCl2-2H2O, Stored at room temperature (23° C.), BSA added before dissection.
Cultivation Medium: Minimal Robb's Medium with 10 uL 0.1% BSA. Minimal Robb's Medium consists of 40 mM KCl, 0.4 mM KH2PO4, 40 mM NaCl, 0.4 mM NaH2PO4.7H2O, 1.2 mM MgSO4.7H2O, 1.2 mM MgCl2-6H2O, 1 mM CaCl2-2H2O, 10 mM Glucose, 0.2 mM L-asparagine, 4.0 mM L-glutamine, 0.16 mM Glycine, 0.64 mM L-leucine, 0.32 mM L-proline, 0.16 mM R-Serine, 0.64 mM L-valine. Stored at −25° C. One day before dissection, aliquot defrosted in 4° C. Add BSA then warmed to room temperature (23° C.) before dissection.
0.1% BSA: 0.1 g BSA fraction V (Sigma#A-9647) in 10 mL distilled H2O, Stored at 4° C.
Developmental Hormone: 1 mg 20-hydroxyecdysone (Sigma #H-5142) in 1 mL 100% Ethanol. Stored at −25° C. Before use, stock is diluted 10× (1 mL added to 9 mL of 100% Ethanol). 10 μL of diluted 20-hydroxyecdysone is added to culture.
Dissection Procedures: Third instar larvae are removed from cultivation bottle with a wetted brush and washed in dH2O to remove food medium clinging to larvae. The cleaned larvae are dissected in Ringer's Medium using forceps. The imaginal discs are washed in fresh Ringer's Medium, and then cultivated with 1 mL of Robb's Medium in 12-well culture plate. Each culture well should have 30˜40 imaginal discs.
Culturing Procedures: In a larger container, place the 12-well culture plate on a moist towel, then seal the large container. Cultivate at 25° C. for 15 hours. Evaluation: Three categories will be used to grade the eversion of each imaginal disc. Full Eversion—the leg is fully extended from the disc. Partial Eversion—the leg is protruding from the epithelial. No Eversion—no sign of any protrusion.

NCCCCNCCCCNCc1c2ccccc2cc2ccccc12 [Compound 6b]
IC50 (CHO-MG cells; absence of AG, 48 h, read-out: CHO-MG IC50 w/o AG): 7.05 µM | IC50 (CHO-MG cells; in the presence of AG, 48 h at 37° C., read-out: CHO-MG IC50): 66.7 µM | inhibition at 18 µM [1]: 97%

CCN(CCCNCCCN)Cc1c2ccccc2cc2ccccc12 [Compound 7a, N-(3-Amino-propyl)-N′-anthracen-9-ylmethyl-N′-ethyl-propane-1,3-diamine]
IC50 (CHO-MG cells; 48 h incubation, new data, read-out: CHO-MG IC50): 4 µM | inhibition at 18 µM [1]: 95%
